IC50 data for 24 compounds are collected here from patent publication US12371428B2 (Exelixis, Inc., priority 2019, dated 2025).

For test [1], the target named is Human KDR (residues 790-1356) (Homo sapiens (Human), UniProt P35968). As to the kind of experiment: Human KDR kinase assay, HTRF KinEase (Example B-2). Format: biochemical. To be noted: protocol of Example B-2 (other compounds). Put shortly: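 Ten compound concentrations (3% DMSO final) were pre-plated, then KDR (790-1356) with biotinylated peptide in Mg/Mn/DTT buffer was added; ATP at Km (4.0 μM) started a 40 min room-temperature reaction. Detection used Eu-TK antibody and SA-XL665 in EDTA buffer; activity normalized to DMSO and reference inhibitor, IC50 by logistic fit.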
Sequence of Human KDR (residues 790-1356) (P35968 790-1356): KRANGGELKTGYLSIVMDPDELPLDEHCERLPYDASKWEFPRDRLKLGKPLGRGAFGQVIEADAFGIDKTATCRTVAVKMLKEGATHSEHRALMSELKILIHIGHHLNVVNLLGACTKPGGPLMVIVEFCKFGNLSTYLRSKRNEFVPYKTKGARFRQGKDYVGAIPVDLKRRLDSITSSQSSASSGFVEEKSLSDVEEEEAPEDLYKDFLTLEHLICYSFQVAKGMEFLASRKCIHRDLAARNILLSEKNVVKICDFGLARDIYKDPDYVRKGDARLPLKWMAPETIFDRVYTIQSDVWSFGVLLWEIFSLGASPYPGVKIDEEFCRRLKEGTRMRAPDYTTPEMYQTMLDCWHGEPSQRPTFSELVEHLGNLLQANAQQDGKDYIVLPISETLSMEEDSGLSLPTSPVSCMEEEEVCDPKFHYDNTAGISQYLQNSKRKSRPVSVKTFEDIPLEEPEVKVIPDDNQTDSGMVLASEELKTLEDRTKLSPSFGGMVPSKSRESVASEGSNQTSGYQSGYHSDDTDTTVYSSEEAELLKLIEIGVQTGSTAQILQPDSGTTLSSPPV

The target in test [2] is KDR (phospho-KDR, VEGF165-stimulated HUVEC cells) (Homo sapiens (Human), UniProt P35968). As to the kind of experiment: KDR autophosphorylation ELISA in HUVEC cells (Example G). The settings on record: cellular activity; KDR autophosphorylation ELISA in HUVEC cells. The format is cell-based. The procedure, abridged:
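Inhibition of VEGF165-driven KDR autophosphorylation is measured in primary human umbilical vein endothelial cells after 24 h serum deprivation. Compound preincubation lasts 1 h before a 5-minute challenge with 100 ng/mL ligand, and phosphorylated receptor is then measured by ELISA in the lysates.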
A general note: In an ELISA, binding on a coated surface is turned into a signal by an enzyme label.

Sequence of KDR (phospho-KDR, VEGF165-stimulated HUVEC cells) (P35968 20-1356): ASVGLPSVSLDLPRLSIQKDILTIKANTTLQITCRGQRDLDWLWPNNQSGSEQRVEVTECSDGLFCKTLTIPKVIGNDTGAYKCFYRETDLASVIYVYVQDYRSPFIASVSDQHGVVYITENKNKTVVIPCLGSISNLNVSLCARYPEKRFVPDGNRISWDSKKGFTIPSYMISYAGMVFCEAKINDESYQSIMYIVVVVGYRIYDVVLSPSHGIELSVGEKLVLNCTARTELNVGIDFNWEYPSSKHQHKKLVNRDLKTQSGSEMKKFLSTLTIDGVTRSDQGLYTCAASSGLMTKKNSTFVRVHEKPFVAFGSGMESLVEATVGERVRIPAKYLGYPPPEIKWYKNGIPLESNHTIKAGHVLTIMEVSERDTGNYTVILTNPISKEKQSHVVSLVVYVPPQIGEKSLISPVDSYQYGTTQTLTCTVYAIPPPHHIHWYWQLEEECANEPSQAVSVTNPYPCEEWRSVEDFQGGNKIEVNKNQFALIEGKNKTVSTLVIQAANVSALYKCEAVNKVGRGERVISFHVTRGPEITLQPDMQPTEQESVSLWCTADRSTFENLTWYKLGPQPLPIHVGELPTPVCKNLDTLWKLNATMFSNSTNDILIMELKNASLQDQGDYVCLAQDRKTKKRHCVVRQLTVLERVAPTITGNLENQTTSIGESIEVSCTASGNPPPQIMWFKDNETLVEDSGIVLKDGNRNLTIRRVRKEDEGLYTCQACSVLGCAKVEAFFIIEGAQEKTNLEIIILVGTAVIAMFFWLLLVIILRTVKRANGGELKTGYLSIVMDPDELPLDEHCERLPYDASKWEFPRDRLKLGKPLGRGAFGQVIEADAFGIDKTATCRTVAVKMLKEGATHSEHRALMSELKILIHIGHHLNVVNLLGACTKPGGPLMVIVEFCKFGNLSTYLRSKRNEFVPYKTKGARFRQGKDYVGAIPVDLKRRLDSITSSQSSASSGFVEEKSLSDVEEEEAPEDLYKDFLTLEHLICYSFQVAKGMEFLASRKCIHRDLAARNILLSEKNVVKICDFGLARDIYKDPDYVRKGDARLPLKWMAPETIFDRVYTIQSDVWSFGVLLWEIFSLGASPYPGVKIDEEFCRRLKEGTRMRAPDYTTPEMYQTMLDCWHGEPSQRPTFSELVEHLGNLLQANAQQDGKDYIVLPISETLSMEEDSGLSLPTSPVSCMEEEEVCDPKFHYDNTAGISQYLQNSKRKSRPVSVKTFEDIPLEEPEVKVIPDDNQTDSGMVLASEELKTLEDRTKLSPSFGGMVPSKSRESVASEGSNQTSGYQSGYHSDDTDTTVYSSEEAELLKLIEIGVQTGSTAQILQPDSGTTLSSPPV

On to `CCn1cc(C(=O)Nc2ccc(Oc3ccnc4cc(OC)c(OC)nc34)c(F)c2)c(=O)c(-c2ccc(F)cc2C)c1CO` [Compound 283, N-[4-[(6,7-Dimethoxy-1,5-naphthyridin-4-yl)oxy]-3-fluorophenyl]-1-ethyl-5-(4-fluoro-2-methylphenyl)-6-(hydroxymethyl)-4-oxopyridine-3-carboxamide], for which the figures for the half-maximal inhibitory concentration (IC50) in test [1] and in test [2] were more than 300 nM and 100 to 300 nM, respectively.
In the case of `COc1cc2nccc(Oc3ccc(NC(=O)c4nn(C(C)C)c(C)c(-c5ccc(F)cc5)c4=O)cc3F)c2nc1OC` [Compound 364, N-[4-[(6,7-dimethoxy-1,5-naphthyridin-4-yl)oxy]-3-fluorophenyl]-5-(4-fluorophenyl)-6-methyl-4-oxo-1-propan-2-ylpyridazine-3-carboxamide], the IC50 in test [1] and in test [2] was less than 100 nM throughout.
As for `COc1cnc2c(Oc3ccc(NC(=O)c4c(C)ccn(-c5ccc(F)cc5)c4=O)cc3)ccnc2c1` [Compound 300, 1-(4-Fluorophenyl)-N-[4-[(7-methoxy-1,5-naphthyridin-4-yl)oxy]phenyl]-4-methyl-2-oxopyridine-3-carboxamide], the IC50 in test [1] was 100 to 300 nM; in test [2], less than 100 nM.
With `Cc1ccc2nccc(Oc3ccc(NC(=O)c4c(C)cc(C)n(-c5ccc(F)cc5)c4=O)cc3F)c2n1` [Compound 297, N-[3-Fluoro-4-[(6-methyl-1,5-naphthyridin-4-yl)oxy]phenyl]-1-(4-fluorophenyl)-4,6-dimethyl-2-oxopyridine-3-carboxamide], the IC50 in test [1] and in test [2] was less than 100 nM throughout.
On to `COc1ccc2nccc(Oc3ccc(NC(=O)c4cccn(-c5ccc(F)cc5)c4=O)cc3F)c2n1` [Compound 292, N-[3-Fluoro-4-[(6-methoxy-1,5-naphthyridin-4-yl)oxy]phenyl]-1-(4-fluorophenyl)-2-oxopyridine-3-carboxamide], for which the values for the IC50 in test [1] and in test [2] were more than 300 nM and less than 100 nM, respectively.
In the case of `COc1cc2nccc(Oc3ccc(NC(=O)c4c(C)ccn(-c5ccc(F)cc5)c4=O)cc3)c2nc1OC` [Compound 299, N-[4-[(6,7-Dimethoxy-1,5-naphthyridin-4-yl)oxy]phenyl]-1-(4-fluorophenyl)-4-methyl-2-oxopyridine-3-carboxamide], the IC50 in test [1] and in test [2] was less than 100 nM throughout.
Turning to `COc1cc2nccc(Oc3ncc(NC(=O)c4cn(C5CN(C)C5)cc(-c5ccc(F)cc5)c4=O)cc3F)c2cc1OC` [Compound 400, N-[6-(6,7-dimethoxyquinolin-4-yl)oxy-5-fluoropyridin-3-yl]-5-(4-fluorophenyl)-1-(1-methylazetidin-3-yl)-4-oxopyridine-3-carboxamide], the IC50 in test [1] and in test [2] was more than 300 nM each time.
For `COc1cc2nccc(Oc3ccc(NC(=O)C4=C5CCCN5CC(c5ccc(F)cc5)C4=O)cc3F)c2nc1OC` (single isomer, unassigned; enantiomer 1) [Compound 374, N-[4-[(6,7-dimethoxy-1,5-naphthyridin-4-yl)oxy]-3-fluorophenyl]-6-(4-fluorophenyl)-7-oxo-2,3,5,6-tetrahydro-1H-indolizine-8-carboxamide, enantiomer 1], the IC50 in test [1] and in test [2] was more than 300 nM each time.
With `COc1ccc2nccc(Oc3ccc(NC(=O)c4ccc(C)n(-c5ccc(F)cc5)c4=O)cc3)c2n1` [Compound 343, 1-(4-fluorophenyl)-N-[4-[(6-methoxy-1,5-naphthyridin-4-yl)oxy]phenyl]-6-methyl-2-oxopyridine-3-carboxamide], the IC50 in test [1] was 100 to 300 nM; in test [2], less than 100 nM.
Regarding `COc1cnc2c(Oc3ccc(NC(=O)c4c(C)ccn(-c5ccc(F)cc5)c4=O)cc3F)ccnc2c1` [Compound 294, N-[3-Fluoro-4-[(7-methoxy-1,5-naphthyridin-4-yl)oxy]phenyl]-1-(4-fluorophenyl)-4-methyl-2-oxopyridine-3-carboxamide], the concentration for half-maximal inhibition (IC50) in test [1] and in test [2] was less than 100 nM each time.
In the case of `COc1ccc2nccc(Oc3ccc(NC(=O)c4ncc(C)n(-c5ccc(F)cc5C)c4=O)cc3F)c2n1` [Compound 394, N-[3-fluoro-4-[(6-methoxy-1,5-naphthyridin-4-yl)oxy]phenyl]-4-(4-fluoro-2-methylphenyl)-5-methyl-3-oxopyrazine-2-carboxamide], the IC50 in test [1] and in test [2] was more than 300 nM throughout.
In the case of `COc1ccc2nccc(Oc3ccc(NC(=O)c4ccc(C)n(-c5ccc(F)cc5)c4=O)cc3F)c2c1` [Compound 346, N-[3-fluoro-4-(6-methoxyquinolin-4-yl)oxyphenyl]-1-(4-fluorophenyl)-6-methyl-2-oxopyridine-3-carboxamide], the IC50 was 100 to 300 nM in test [1] and less than 100 nM in test [2].
For `COc1cc2nccc(Oc3ccc(NC(=O)c4cc(C)c(C)n(-c5ccc(F)cc5)c4=O)cc3F)c2nc1OC` [Compound 370, N-[4-[(6,7-dimethoxy-1,5-naphthyridin-4-yl)oxy]-3-fluorophenyl]-1-(4-fluorophenyl)-5,6-dimethyl-2-oxopyridine-3-carboxamide], the IC50 in test [1] and in test [2] was less than 100 nM each time.
Take `COc1cc2nccc(Oc3ccc(NC(=O)c4cc(C(C)C)c(C)n(-c5ccc(F)cc5)c4=O)cc3F)c2nc1OC` [Compound 368, N-[4-[(6,7-dimethoxy-1,5-naphthyridin-4-yl)oxy]-3-fluorophenyl]-1-(4-fluorophenyl)-6-methyl-2-oxo-5-propan-2-ylpyridine-3-carboxamide]: the IC50 in test [1] is 100 to 300 nM; in test [2], less than 100 nM.
For `COc1cnc2c(Oc3ccc(NC(=O)c4c(C)cc(C)n(-c5ccc(F)cc5)c4=O)cc3F)ccnc2c1` [Compound 280, N-[3-Fluoro-4-[(7-methoxy-1,5-naphthyridin-4-yl)oxy]phenyl]-1-(4-fluorophenyl)-4,6-dimethyl-2-oxopyridine-3-carboxamide], the IC50 in test [1] and in test [2] was less than 100 nM each time.
Consider `COc1ccc2nccc(Oc3ccc(NC(=O)c4c(C)nc(C)c(-c5ccc(F)cc5)c4O)cc3F)c2c1` [Compound 345, N-[3-fluoro-4-(6-methoxyquinolin-4-yl)oxyphenyl]-5-(4-fluorophenyl)-4-hydroxy-2,6-dimethylpyridine-3-carboxamide], for which the IC50 in test [1] is 100 to 300 nM; in test [2], less than 100 nM.
Take `COc1cnc2c(Oc3ccc(NC(=O)c4cccn(-c5ccc(F)cc5)c4=O)cc3F)ccnc2c1` [Compound 291, N-[3-Fluoro-4-[(7-methoxy-1,5-naphthyridin-4-yl)oxy]phenyl]-1-(4-fluorophenyl)-2-oxopyridine-3-carboxamide]: the IC50 is more than 300 nM in test [1] and less than 100 nM in test [2].
As to `COc1cc2nccc(Oc3ccc(NC(=O)c4nccn(-c5ccc(F)cc5)c4=O)cc3)c2nc1OC` [Compound 384, N-[4-[(6,7-dimethoxy-1,5-naphthyridin-4-yl)oxy]phenyl]-4-(4-fluorophenyl)-3-oxopyrazine-2-carboxamide], the IC50 in test [1] is 100 to 300 nM; in test [2], less than 100 nM.
Turning to `COc1ccc2nccc(Oc3ccc(NC(=O)c4cn(C(C)C)c(C)c(-c5ccc(F)cc5)c4=O)cc3)c2n1` [Compound 341, 5-(4-fluorophenyl)-N-[4-[(6-methoxy-1,5-naphthyridin-4-yl)oxy]phenyl]-6-methyl-4-oxo-1-propan-2-ylpyridine-3-carboxamide], the IC50 in test [1] and in test [2] was more than 300 nM each time.
Regarding `COc1cc2nccc(Oc3cc(F)c(NC(=O)c4cn(C)c(C)c(-c5ccc(F)cc5)c4=O)cc3F)c2nc1OC` [Compound 391, N-[4-[(6,7-dimethoxy-1,5-naphthyridin-4-yl)oxy]-2,5-difluorophenyl]-5-(4-fluorophenyl)-1,6-dimethyl-4-oxopyridine-3-carboxamide], the IC50 in test [1] was 100 to 300 nM; in test [2], more than 300 nM.
For `Cc1ccc(C(=O)Nc2ccc(Oc3ccnc4ccc(OCCN5CCOCC5)nc34)c(F)c2)c(=O)n1-c1ccc(F)cc1` [Compound 351, N-[3-fluoro-4-[[6-(2-morpholin-4-ylethoxy)-1,5-naphthyridin-4-yl]oxy]phenyl]-1-(4-fluorophenyl)-6-methyl-2-oxopyridine-3-carboxamide], the IC50 in test [1] is more than 300 nM; in test [2], less than 100 nM.
Consider `Cc1ccc(C(=O)Nc2ccc(Oc3ccnc4ccc(OCCN(C)C)nc34)c(F)c2)c(=O)n1-c1ccc(F)cc1` [Compound 353, N-[4-[[6-[2-(dimethylamino)ethoxy]-1,5-naphthyridin-4-yl]oxy]-3-fluorophenyl]-1-(4-fluorophenyl)-6-methyl-2-oxopyridine-3-carboxamide], for which the IC50 in test [1] was more than 300 nM; in test [2] it was less than 100 nM.
As to `CCn1cc(C(=O)Nc2ccc(Oc3ccnc4cc(OC)cnc34)c(F)c2)c(=O)c(-c2ccc(F)cc2C)c1CO` [Compound 285, 1-Ethyl-N-[3-fluoro-4-[(7-methoxy-1,5-naphthyridin-4-yl)oxy]phenyl]-5-(4-fluoro-2-methylphenyl)-6-(hydroxymethyl)-4-oxopyridine-3-carboxamide], the IC50 in test [1] and in test [2] was more than 300 nM in each case.
For `CCn1cc(C(=O)Nc2ccc(Oc3ccnc4cc(OC)c(OC)nc34)cc2)c(=O)c(-c2ccc(F)cc2C)c1CO` [Compound 284, N-[4-[(6,7-Dimethoxy-1,5-naphthyridin-4-yl)oxy]phenyl]-1-ethyl-5-(4-fluoro-2-methylphenyl)-6-(hydroxymethyl)-4-oxopyridine-3-carboxamide], the IC50 in test [1] and in test [2] was more than 300 nM in each case.

Usually IC50 stands for the concentration needed to halve the response being measured. Low values mean greater potency in that assay, high ones weaker potency in that assay.
